Results: EP4635500A1, “THERAPEUTIC AGENT FOR BACTERIAL INFECTION” (Sumitomo Pharma Co., Ltd., priority 2022, dated 2024)
Where two headings read alike, the source gives them in different places.

Assays:
Providencia rettgeri = assay: MIC, broth microdilution, standard strains and Japanese clinical isolates (Example 5, Table 4); type: cell-based; conditions: ATCCBAA2525; KUB4010 Providencia rettgeri ATCC BAA-2525, OXA-181
Enterobacterales = assay: MIC, broth microdilution, CDC/FDA Antibiotic Resistance Isolate Bank (Example 7, Tables 8, 11, 12); type: cell-based; conditions: for MIC: read-out: MIC

CC(C)(O/N=C(\C(=O)N[C@@H]1C(=O)N2C(C(=O)[O-])=C(C[N+]3(CCNC(=O)c4ccc(O)c(O)c4Cl)CCCC3)CS[C@H]12)c1csc(N)n1)C(=O)O [Cefiderocol, cefiderocol]
2 µg/mL: MIC (Providencia rettgeri) | MIC90 (Enterobacterales; 154 strains of Enterobacterales, read-out: MIC90) | MIC (Enterobacterales; Enterobacter cloacae, Enterobacter cloacae KUB No. 5792, AR Bank #448) | MIC (Enterobacterales; Enterobacter cloacae, KUB No. 5547, AR Bank# 50) | MIC (Enterobacterales; Escherichia coli, Escherichia coli KUB No. 5803, AR Bank #861) | MIC (Enterobacterales; Escherichia coli, KUB No. 5615, AR Bank # 118) | MIC (Enterobacterales; Escherichia coli, KUB No. 5625, AR Bank # 128) | MIC (Enterobacterales; Escherichia coli, KUB No. 5634, AR Bank # 137)
1 µg/mL: MIC80 (Enterobacterales; 154 strains of Enterobacterales, read-out: MIC80) | MIC (Enterobacterales; Citrobacter freundii, KUB No. 5654, AR Bank # 157) | MIC (Enterobacterales; Enterobacter cloacae, Enterobacter cloacae KUB No. 5807, AR Bank #501) | MIC (Enterobacterales; Enterobacter cloacae, Enterobacter cloacae KUB No. 5808, AR Bank #502) | MIC (Enterobacterales; Enterobacter cloacae, KUB No. 5763, AR Bank # 367) | MIC (Enterobacterales; Escherichia coli, Escherichia coli KUB No. 5796, AR Bank #452) | MIC (Enterobacterales; Escherichia coli, KUB No. 5566, AR Bank # 69) | MIC (Enterobacterales; Escherichia coli, KUB No. 5601, AR Bank # 104)
0.5 µg/mL: MIC50 (Enterobacterales; 154 strains of Enterobacterales, read-out: MIC50) | MIC (Enterobacterales; Enterobacter cloacae, Enterobacter cloacae complex, KUB No. 5661, AR Bank # 164) | MIC (Enterobacterales; Enterobacter cloacae, Enterobacter cloacae group, KUB No. 5629, AR Bank # 132) | MIC (Enterobacterales; Enterobacter cloacae, KUB No. 5535, AR Bank# 38) | MIC (Enterobacterales; Escherichia coli, Escherichia coli KUB No. 5795, AR Bank #451) | MIC (Enterobacterales; Escherichia coli, KUB No. 5581, AR Bank # 84) | MIC (Enterobacterales; Escherichia coli, KUB No. 5616, AR Bank # 119) | MIC (Enterobacterales; Escherichia coli, KUB No. 5766, AR Bank # 370)
8 µg/mL: MIC (Enterobacterales; Escherichia coli, KUB No. 5659, AR Bank # 162)
0.12 µg/mL: MIC (Enterobacterales; Enterobacter cloacae, KUB No. 5550, AR Bank# 53) | MIC (Enterobacterales; Escherichia coli, KUB No. 5564, AR Bank # 67) | MIC (Enterobacterales; Escherichia coli, KUB No. 5582, AR Bank # 85) | MIC (Enterobacterales; Escherichia coli, KUB No. 5583, AR Bank # 86)
16 µg/mL: MIC (Enterobacterales; Escherichia coli, KUB No. 5646, AR Bank # 149)
≤ 0.06 µg/mL: MIC (Enterobacterales; Escherichia coli, KUB No. 5558, AR Bank # 61) | MIC (Enterobacterales; Escherichia coli, KUB No. 5574, AR Bank # 77) | MIC (Enterobacterales; Escherichia coli, KUB No. 5586, AR Bank # 89) | MIC (Enterobacterales; Escherichia coli, KUB No. 5764, AR Bank # 368)
0.25 µg/mL: MIC (Enterobacterales; Enterobacter cloacae, KUB No. 5562, AR Bank # 65) | MIC (Enterobacterales; Enterobacter cloacae, KUB No. 5569, AR Bank # 72) | MIC (Enterobacterales; Enterobacter cloacae, KUB No. 5570, AR Bank # 73) | MIC (Enterobacterales; Enterobacter cloacae, KUB No. 5590, AR Bank # 93) | MIC (Enterobacterales; Enterobacter cloacae, KUB No. 5660, AR Bank # 163) | MIC (Enterobacterales; Enterobacter cloacae, KUB No. 5761, AR Bank # 365) | MIC (Enterobacterales; Enterobacter cloacae, KUB No. 5762, AR Bank # 366) | MIC (Enterobacterales; Enterobacter clooreae, KUB No. 5633, AR Bank # 136) | MIC (Enterobacterales; Escherichia coli, Escherichia coli KUB No. 5783, AR Bank #437) | MIC (Enterobacterales; Escherichia coli, Escherichia coli KUB No. 5794, AR Bank #450) | MIC (Enterobacterales; Escherichia coli, KUB No. 5578, AR Bank # 81) | MIC (Enterobacterales; Escherichia coli, KUB No. 5611, AR Bank # 114) | MIC (Enterobacterales; Escherichia coli, KUB No. 5765, AR Bank # 369)
4 µg/mL: MIC (Enterobacterales; Enterobacter cloacae, KUB No. 5557, AR Bank# 60) | MIC (Enterobacterales; Enterobacter cloacae, KUB No. 5778, AR Bank # 432) | MIC (Enterobacterales; Enterobacter cloaccae, KUB No. 5651, AR Bank # 154) | MIC (Enterobacterales; Escherichia coli, KUB No. 5647, AR Bank # 150) | MIC (Enterobacterales; Escherichia coli, KUB No. 5648, AR Bank # 151)
